US20200377496A1, “INDOLE AND BENZIMIDAZOLE DERIVATIVES AS DUAL 5-HT2A and 5-HT6 RECEPTOR ANTAGONISTS” (ADAMED PHARMA, S.A., priority 2018, published 2020)
Where two headings read alike, the source gives them in different places.

Tests used:
human GPCR 5-HT6 = human GPCR 5-HT6 (Homo sapiens, UniProt P50406); experiment: Cellular aequorin-based functional assay, 5-HT6; assay type: cell-based; details: for 5-HT6 AGO EC50 [nM]: agonist mode, CHO-K1 aequorin cells; for Kb: antagonist mode, reference agonist serotonin 40 nM (EC80), read-out: 5-HT6 ANT Kb
Experimental: (§1) Preparation of Solutions of Test and Reference Compounds.
(§2) 1 mM stock solutions of the tested compounds were prepared in DMSO. Serial dilutions were prepared in 96-well microplate in assay buffers using automated pipetting system epMotion 5070 (Eppendorf). Two independent experiments in duplicates were performed and 6 to 10 concentrations were tested.
(§3) 5-HT2A and 5-HT6 Functional Activity Assays.
(§4) Cellular aequorin-based functional assays were performed with γ-irradiated recombinant CHO-K1 cells expressing mitochondrially-targeted Aequorin, human GPCR (5-HT2A or 5-HT6) and the promiscuous G protein α16 (PerkinElemer). Assays were performed according to the standard protocol provided by the manufacturer. After thawing, cells were transferred to assay buffer (DMEM/HAM's F12 with 0.1% protease-free BSA) and centrifuged. Cell pellet was resuspended in assay buffer and coelenterazine h was added at final concentrations of 5 μM. Cell suspension was incubated at 21° C., protected from light with constant agitation, for 4 hours and then diluted with assay buffer to a concentration of 250,000 cells/ml. After 1 hour incubation 50 yl cell suspension was dispensed using automatic injectors built in radiometric and luminescence plate counter MicroBeta2 LumiJET (PerkinElmer, USA) into white opaque 96-well microplate preloaded with tested compounds. Immediate light emission generated following calcium mobilization was recorded for 30-60 seconds. In antagonist mode, after 15-30 minutes incubation reference agonist was added to the above assay mix and light emission was recorded again. Final concentration of reference agonist was equal EC80: serotonin 40 nM for 5-HT6 receptor and α-methylserotonin 30 nM for 5-HT2A receptor. The assays were performed in the agonist mode (5-HT6 AGO and 5-HT2A AGO) as well as antagonist mode (5-HT6 ANT and 5-HT2A ANT).
(§5) IC50 and EC50 were determined by non-linear regression analysis using GraphPad Prism 6.0 software. The log IC50 was used to obtain the Kb by applying the Cheng-Prusoff approximation.

human GPCR 5-HT2A = human GPCR 5-HT2A (Homo sapiens, UniProt P28223); experiment: Cellular aequorin-based functional assay, 5-HT2A; assay type: cell-based; details: for 5-HT2A AGO EC50 [nM]: agonist mode, CHO-K1 aequorin cells
Experimental: as §1, §2, §3, §4, §5

[1] = system: scopolamine-induced deficits in learning and memory; experiment: Scopolamine-induced deficits in step-through passive avoidance test in Wistar rats; assay type: in vivo; details: hydrochloride salt p.o. 180 min before training; scopolamine 0.3 mg/kg i.p.; male Wistar rats
Experimental: Biological Example 4. Effects of Compounds 1 and 17, on Scopolamine-Induced Deficits in Learning and Memory in the Passive Avoidance Test in Wistar Rats
Drug-naive male Wistar rats (Charles River, Sulzfeld, Germany) were used. Rats were housed four per standard plastic cage and kept in a room with constant environmental conditions (22±1° C., relative humidity 60%, a 12:12 light-dark cycle with lights on at 7:00 a.m.). Animals were supplied by the breeder 2-3 weeks before the onset of behavioral procedures. During this time, the subjects were weighted and handled several times. […]
Effects of tested compounds on learning and memory function were evaluated using a step-through passive avoidance test (Ishiyama et al., 2007). […]
In the training (acquisition) session, the animals were individually placed in the lighted compartment and allowed to explore it freely for 10 s. The sliding door was then opened, and the step-through latency for animals to enter the dark compartment was measured with a 300-s cut-off time. […]
The test (expression) session was performed 24 h after the training session using the same paradigm but without any foot-shock or drug injections. Step-through latencies for animals to enter the dark compartment were measured with a 300-s cut-off time. […]
Body weights (g) and training/test latencies (s) were analyzed with the aid of a one-way analysis of variance (ANOVA). […]

human GPCR 5-HT6, sequence (P50406 whole entry): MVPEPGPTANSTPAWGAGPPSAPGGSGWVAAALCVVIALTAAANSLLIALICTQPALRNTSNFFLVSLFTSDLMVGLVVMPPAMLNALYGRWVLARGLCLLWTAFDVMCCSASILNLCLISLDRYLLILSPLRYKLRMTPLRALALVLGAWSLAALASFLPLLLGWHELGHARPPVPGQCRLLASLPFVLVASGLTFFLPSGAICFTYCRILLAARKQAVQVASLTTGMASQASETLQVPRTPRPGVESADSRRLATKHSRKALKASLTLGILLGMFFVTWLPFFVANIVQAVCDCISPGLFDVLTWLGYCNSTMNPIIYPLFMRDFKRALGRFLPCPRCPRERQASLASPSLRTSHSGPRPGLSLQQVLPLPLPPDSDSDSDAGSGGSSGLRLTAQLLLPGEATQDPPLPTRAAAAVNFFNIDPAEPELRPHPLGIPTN
human GPCR 5-HT2A, sequence (P28223 whole entry): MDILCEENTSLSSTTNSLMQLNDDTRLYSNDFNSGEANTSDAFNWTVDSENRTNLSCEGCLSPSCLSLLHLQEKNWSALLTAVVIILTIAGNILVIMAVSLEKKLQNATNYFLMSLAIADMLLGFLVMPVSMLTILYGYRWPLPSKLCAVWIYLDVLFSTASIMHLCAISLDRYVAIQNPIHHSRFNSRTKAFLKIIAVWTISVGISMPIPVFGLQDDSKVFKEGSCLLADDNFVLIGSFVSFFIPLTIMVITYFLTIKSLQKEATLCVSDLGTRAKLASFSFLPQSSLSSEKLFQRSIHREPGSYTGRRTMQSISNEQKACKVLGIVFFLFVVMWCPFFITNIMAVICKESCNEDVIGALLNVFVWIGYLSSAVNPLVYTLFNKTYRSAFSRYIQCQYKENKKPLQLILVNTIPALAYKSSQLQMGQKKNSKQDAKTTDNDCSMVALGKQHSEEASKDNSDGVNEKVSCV

Structure (SMILES): FC(F)(F)c1nc2c(N3CCNCC3)cccc2n1Cc1ccccc1 [Compound 1, 1-benzyl-4-(piperazin-1-yl)-2-(trifluoromethyl)-1H-benzimidazole]
- 5-HT6 AGO EC50 [nM] (human GPCR 5-HT6): N.C.
- Kb (human GPCR 5-HT6): 2.5 nM
- 5-HT2A AGO EC50 [nM] (human GPCR 5-HT2A): N.C.
- Kb (human GPCR 5-HT2A; antagonist mode, reference agonist α-methylserotonin 30 nM (EC80), read-out: 5-HT2A ANT Kb): 18 nM
- minimal effective dose, elongation of step-through latencies in test session [1]: 3.0 mg/kg

Structure (SMILES): FC(F)(F)c1cc2c(N3CCNCC3)cccc2n1Cc1ccco1 [Compound 17, 1-(furan-2-ylmethyl)-4-(piperazin-1-yl)-2-(trifluoromethyl)-1H-indole]
- 5-HT6 AGO EC50 [nM] (human GPCR 5-HT6): N.C.
- Kb (human GPCR 5-HT6): 0.47 nM
- Kb (human GPCR 5-HT2A): 10 nM
- 5-HT2A AGO EC50 [nM] (human GPCR 5-HT2A): N.C.
- minimal effective dose, elongation of step-through latencies in test session [1]: 1.0 mg/kg
